Here are results for 23 compounds from patent publication US20260138961A1, “MODULATORS OF MITOCHONDRIAL DNA REPLICATION” (Pretzel Therapeutics, Inc., priority 2022, published 2026).

A value given as a limit tells only on which side of the number the result lay.

The target in one experiment is T1, POLγA:A467T (Homo sapiens, UniProt P54098, A467T).
T1 sequence (P54098 1-1239 A467T): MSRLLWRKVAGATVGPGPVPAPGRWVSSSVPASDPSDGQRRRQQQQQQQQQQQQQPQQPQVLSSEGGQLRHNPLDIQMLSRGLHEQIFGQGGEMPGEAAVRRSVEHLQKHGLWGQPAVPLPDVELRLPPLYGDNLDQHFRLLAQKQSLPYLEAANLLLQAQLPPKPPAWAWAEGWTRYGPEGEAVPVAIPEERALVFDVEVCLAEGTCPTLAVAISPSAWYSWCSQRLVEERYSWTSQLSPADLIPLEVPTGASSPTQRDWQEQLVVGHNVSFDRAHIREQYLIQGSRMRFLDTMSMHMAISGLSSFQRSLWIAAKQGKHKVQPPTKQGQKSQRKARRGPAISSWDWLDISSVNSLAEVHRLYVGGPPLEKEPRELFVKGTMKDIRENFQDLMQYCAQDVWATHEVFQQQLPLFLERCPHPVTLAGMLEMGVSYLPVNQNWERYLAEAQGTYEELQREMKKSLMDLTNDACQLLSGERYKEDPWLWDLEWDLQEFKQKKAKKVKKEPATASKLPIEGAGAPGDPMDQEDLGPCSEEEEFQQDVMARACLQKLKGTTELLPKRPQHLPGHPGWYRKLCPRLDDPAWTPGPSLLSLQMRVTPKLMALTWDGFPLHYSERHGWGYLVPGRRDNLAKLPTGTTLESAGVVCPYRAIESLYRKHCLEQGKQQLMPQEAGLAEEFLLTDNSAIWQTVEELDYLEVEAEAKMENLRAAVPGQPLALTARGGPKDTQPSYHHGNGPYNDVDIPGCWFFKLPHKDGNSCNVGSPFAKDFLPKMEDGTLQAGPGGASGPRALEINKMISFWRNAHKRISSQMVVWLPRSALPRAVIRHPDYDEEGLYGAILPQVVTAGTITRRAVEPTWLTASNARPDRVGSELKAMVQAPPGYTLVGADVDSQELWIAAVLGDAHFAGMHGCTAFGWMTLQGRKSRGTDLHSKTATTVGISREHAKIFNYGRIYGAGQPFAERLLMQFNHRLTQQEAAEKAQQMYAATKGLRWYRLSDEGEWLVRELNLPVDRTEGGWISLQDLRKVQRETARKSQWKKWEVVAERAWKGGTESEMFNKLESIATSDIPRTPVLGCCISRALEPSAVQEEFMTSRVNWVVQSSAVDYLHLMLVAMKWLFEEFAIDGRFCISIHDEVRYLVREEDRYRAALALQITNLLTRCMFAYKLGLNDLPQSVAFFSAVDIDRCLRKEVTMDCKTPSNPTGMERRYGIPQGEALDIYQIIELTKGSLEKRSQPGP
T1 sequence (Q9UHN1 1-485 partner): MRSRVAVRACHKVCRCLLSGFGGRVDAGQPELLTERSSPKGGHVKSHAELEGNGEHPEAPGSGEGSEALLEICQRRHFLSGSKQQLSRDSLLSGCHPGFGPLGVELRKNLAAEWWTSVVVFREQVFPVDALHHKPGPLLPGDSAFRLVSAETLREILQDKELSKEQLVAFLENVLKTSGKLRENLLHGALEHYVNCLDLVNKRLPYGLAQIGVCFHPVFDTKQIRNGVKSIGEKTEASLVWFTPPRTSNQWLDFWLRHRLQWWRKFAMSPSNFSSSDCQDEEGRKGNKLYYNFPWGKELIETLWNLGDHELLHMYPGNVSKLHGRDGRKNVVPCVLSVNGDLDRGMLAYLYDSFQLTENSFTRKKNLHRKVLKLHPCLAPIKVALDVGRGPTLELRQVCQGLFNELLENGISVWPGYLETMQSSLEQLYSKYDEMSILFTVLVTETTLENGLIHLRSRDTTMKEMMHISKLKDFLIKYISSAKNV
Description: DNA polymerization assay, POLγA:A467T mutant. In kind it is biochemical. As to conditions: A467T AC50, stimulation of polymerase activity, primed M13mp18 ssDNA, 37° C. 2 hours. How it is done:
DNA Polymerization Assay to Monitor Effects on Human Wildtype POLγ and Four Disease-Causing Mutant Variants of Human POLγ.
The ability of small molecules to stimulate the polymerase activity of POLγ was analyzed in a quantitative fluorescence SYBR Green I assay with fluorescence intensity (FI) readout.
In the presence of dNTPs, wild type human POLγ and mutant derivatives thereof were incubated with single-stranded, circular M13mp18 ssDNA hybridized to a short DNA oligonucleotide that functions as a primer for initiation of DNA synthesis. POLγ and mutant derivatives thereof will extend the primer and use the M13mp18 molecule as a template to synthesize long stretches of double-stranded DNA. SYBR Green I, which is a double-stranded DNA-binding dye, was used to quantify formation of double-stranded DNA in the reaction. When bound to double-stranded DNA, SYBR Green I fluorescence increases by up to 100-fold.
The assay was performed in the 384-well plate format. Upon addition of compounds, changes in double-stranded DNA synthesis activity can be monitored by following effects on fluorescent intensity.
The reactions also contained the accessory POLγB subunit, and the human mitochondrial single-stranded DNA binding protein (mtSSB).
The DNA template mixture used in the assay contained 0.5 nM primed M13 mp18 ssDNA, 400 nM mtSSB, 0.1 mM Tris-HCl (pH 8.0), 0.1 mM dNTP, 10 mM MgCl2, 0.1 mg/mL BSA, 1 mM TCEP solution, and 0.02% Triton X-100. The DNA template mixture for the wild type protein contained either 100 μM dNTP, 1 μM dNTP, or 0.1 μM dNTP, designated in Table 2 as 100 μM, 1 μM, and 0.1 μM, respectfully.
Microplates with compounds (0.1 μL in each well) to be tested in the assay were prepared from 10 mM compound stocks in 100% DMSO, and equal amounts of DMSO without any compound were added to positive and negative control wells.
The protein mixture was dispensed (5 μL into each well) into compound plates and incubated at 37° C. for 15 minutes. After incubation, 5 μL of the DNA template mixture was dispensed into each well. The plates were then incubated at 37° C. for 2 hours.
During incubation, a combined stop buffer and detection reagent solution was prepared. The buffer contained 25 mM EDTA (pH 8.0), 0.02% Triton X-100, and SYBR Green I [Invitrogen] diluted 10,000× (for fluorescent readout). EDTA will stop the enzymatic reaction by chelating magnesium ions.
For `Cc1cc(S(=O)(=O)Nc2noc(-c3ccccc3)n2)c(C)cc1Cl` [Example 142, 4-chloro-2,5-dimethyl-N-(5-phenyl-1,2,4-oxadiazol-3-yl)benzenesulfonamide], the AC50 is > 100 µM.

The experiment is the same for the next values; noted with them: stimulation of polymerase activity, primed M13mp18 ssDNA, 37° C. 2 hours; read-out: A467T AC50.
Turning to `Cc1cc(S(=O)(=O)Nc2csc(-c3ccccc3)n2)c(Cl)cc1F` [Example 136, 2-chloro-4-fluoro-5-methyl-N-(2-phenylthiazol-4-yl)benzenesulfonamide], the half-maximal activity concentration (AC50) amounted to 5 µM. For `CNC(=O)c1cnc(-c2cccc(NS(=O)(=O)c3cc(C)c(Cl)cc3C)c2)s1` [Example 93, 2-(3-((4-chloro-2,5-dimethylphenyl)sulfonamido)phenyl)-N-methylthiazole-5-carboxamide], the AC50 is > 100 µM. Consider `Cc1cc(S(=O)(=O)Nc2cccc(C(=O)N3CCC[C@H]3C)c2)ccc1Cl` [Example 117, (R)-4-chloro-3-methyl-N-(3-(2-methylpyrrolidine-1-carbonyl)phenyl)benzenesulfonamide], for which the AC50 was > 100 µM. The same measure, in the same setting: with `Cc1cc(S(=O)(=O)Nc2cccc(C(=O)N3CCc4ncnc(C)c4C3)c2)c(C)cc1Cl` [Example 114, 4-chloro-2,5-dimethyl-N-(3-(4-methyl-5,6,7,8-tetrahydropyrido [4,3-d]pyrimidine-6-carbonyl)phenyl)benzenesulfonamide] the figure was > 100 µM. On the same count and under the same terms, with `Cc1cc(S(=O)(=O)Nc2cccc(C(=O)N3C[C@@H](F)C[C@H](F)C3)c2)c(C)cc1Cl` [Example 115, 4-chloro-N-(3-((3S,5S)-3,5-difluoropiperidine-1-carbonyl)phenyl)-2,5-dimethylbenzenesulfonamide] the figure was > 100 µM; with `Cc1cc(S(=O)(=O)N[C@@H]2CCCN(C(=O)N3CCCC3)C2)c(C)cc1Cl` [Example 153, (R)-4-chloro-2,5-dimethyl-N-(1-(pyrrolidine-1-carbonyl)piperidin-3-yl)benzenesulfonamide], > 100 µM; with `O=S(=O)(Nc1csc(-c2ccccc2)n1)c1ccccc1` [Example 147, N-(2-phenylthiazol-4-yl)benzenesulfonamide], > 100 µM. Still for that read-out and setting: with `O=S(=O)(Nc1csc(-c2ccccc2)n1)c1ccc(F)cc1F` [Example 140, 2,4-difluoro-N-(2-phenylthiazol-4-yl)benzenesulfonamide] the figure was > 100 µM; with `Cc1cnc(-c2ccc(C)c(NS(=O)(=O)c3cc(C)c(Cl)cc3C)c2)s1` [Example 98, 4-chloro-2,5-dimethyl-N-(2-methyl-5-(5-methylthiazol-2-yl)phenyl)benzenesulfonamide], > 100 µM.

For the compound `Cc1cc(S(=O)(=O)N[C@H]2CCCN(C(=O)N3CCCC3)C2)c(C)cc1Cl` [Example 130, (S)-4-chloro-2,5-dimethyl-N-(1-(pyrrolidinee-1-carbonyl)piperidin-3-yl)benzenesulfonamide], the AC50 was > 100 µM.

As for `O=S(=O)(Nc1csc(-c2ccccc2)n1)c1ccc(F)c(F)c1` [Example 122, 3,4-difluoro-N-(2-phenylthiazol-4-yl)benzenesulfonamide], the half-maximal activity concentration (AC50) is > 100 µM. On to `Cc1cc(S(=O)(=O)Nc2cccc(C(=O)N3CCCC4(CC4)C3)c2)c(C)cc1Cl` [Example 105, N-(3-(5-azaspiro[2.5]octane-5-carbonyl)phenyl)-4-chloro-2,5-dimethylbenzenesulfonamide], for which the concentration at half-maximal activity (AC50) is > 100 µM. The same measure, in the same setting: with `Cc1cc(S(=O)(=O)Nc2cccc(-c3ccn(C)n3)c2)c(C)cc1Cl` [Example 18, 4-chloro-2,5-dimethyl-N-(3-(1-methyl-1H-pyrazol-3-yl)phenyl)benzenesulfonamide] the figure was 17 µM; with `Cc1cc(F)ccc1S(=O)(=O)Nc1csc(-c2ccccc2)n1` [Example 124, 4-fluoro-2-methyl-N-(2-phenylthiazol-4-yl)benzenesulfonamide], > 100 µM; with `Cc1cc(S(=O)(=O)Nc2csc(-c3ccccc3)n2)c(F)cc1Cl` [Example 146, 4-chloro-2-fluoro-5-methyl-N-(2-phenylthiazol-4-yl)benzenesulfonamide], > 100 µM. On the same count and under the same terms, with `O=S(=O)(Nc1csc(-c2ccccc2)n1)c1ccc2ncsc2c1` [Example 137, N-(2-phenylthiazol-4-yl)benzo[d]thiazole-6-sulfonamide] the figure was > 100 µM; with `Cc1cc(S(=O)(=O)Nc2cccc(C(=O)N3CCCC3)c2)c(C)cc1Cl` [Example 119, 4-chloro-2,5-dimethyl-N-(3-(pyrrolidine-1-carbonyl)phenyl) benzenesulfonamide], > 100 µM; with `Cc1cc(S(=O)(=O)N[C@H]2CCCN(C(=O)[C@H]3CCCN3C)C2)c(C)cc1Cl` [Example 95, 4-chloro-2,5-dimethyl-N-((S)-1-(methyl-D-prolyl)piperidin-3-yl)benzenesulfonamide], > 100 µM.

Turning to `O=S(=O)(Nc1csc(-c2ccccc2)n1)c1ccc(F)cc1Cl` [Example 126, 2-chloro-4-fluoro-N-(2-phenylthiazol-4-yl)benzenesulfonamide], the AC50 is 32 µM.

On to `Cc1cc(S(=O)(=O)Nc2cccc(C(=O)N3C[C@H](C)[C@@H](N)C3)c2)c(C)cc1Cl` [Example 108, N-(3-((3R,4S)-3-amino-4-methylpyrrolidine-1-carbonyl)phenyl)-4-chloro-2,5-dimethylbenzenesulfonamide], for which the half-maximal activity concentration (AC50) is > 100 µM.

On to `Cc1cc(S(=O)(=O)Nc2csc(-c3ccccc3)n2)ccc1Cl` [Example 148, 4-chloro-3-methyl-N-(2-phenylthiazol-4-yl)benzenesulfonamide], for which the concentration at half-maximal activity (AC50) was > 100 µM. For the compound `O=S(=O)(Nc1csc(-c2ccccc2)n1)c1ccc(Cl)cc1Cl` [Example 138, 2,4-dichloro-N-(2-phenylthiazol-4-yl)benzenesulfonamide], the concentration at half-maximal activity (AC50) was > 100 µM.

Usually AC50 stands for the concentration at which the activity in the assay is half-maximal.
